Results taken from paper PMC12567041 (Pharmaceutics, 2025).
pIC50: −log10 of the molar value. “And” between values parts separate entries of the source, which are not always exact repeats. Equal values may be shown once. “Also recorded” adds a separate entry of the source. Blank lines part the entries; values can stand above or below the compound they belong to.

Columns and labels:
[1] = In vitro stability study in human feces; type: in vitro ADME; details: after 20 h
[2] = cited from earlier work
in vitro = details: MDCK
UGT1A4 = target: T1, UGT1A4 (Homo sapiens, UniProt P22310); test: Inhibition of recombinant UGT1A4 by imatinib; type: in vitro ADME
T1 sequence (P22310 29-534): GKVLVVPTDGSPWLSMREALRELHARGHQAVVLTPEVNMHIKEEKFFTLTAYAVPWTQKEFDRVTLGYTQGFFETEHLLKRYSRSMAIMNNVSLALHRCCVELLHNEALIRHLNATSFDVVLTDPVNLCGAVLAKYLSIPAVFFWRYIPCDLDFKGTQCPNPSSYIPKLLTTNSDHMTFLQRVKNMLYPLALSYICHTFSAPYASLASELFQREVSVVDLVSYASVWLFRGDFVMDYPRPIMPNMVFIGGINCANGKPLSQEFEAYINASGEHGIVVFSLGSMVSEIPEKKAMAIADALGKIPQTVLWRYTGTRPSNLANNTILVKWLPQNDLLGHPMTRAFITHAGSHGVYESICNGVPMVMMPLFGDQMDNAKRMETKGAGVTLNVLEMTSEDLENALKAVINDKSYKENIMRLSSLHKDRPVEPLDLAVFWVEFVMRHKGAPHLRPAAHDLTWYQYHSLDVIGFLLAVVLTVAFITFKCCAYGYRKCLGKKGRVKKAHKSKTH

[3] = Two-stage dissolution FaSSGF to FaSSIF; type: physicochemical; details: doses up to 200 mg
Method: […]. […] In vitro two-stage dissolution experiments, during which the drug/formulation is pre-exposed to fasted-state simulated gastric fluid (FaSSGF) for a 30 min period, at the end of which, properly concentrated fasted-state simulated intestinal fluid (FaSSIF) is immediately added to FaSSGF [13], were performed to assess the risk of precipitation in vitro. […] Considering the high passive permeability, this indicates low risk for compromised absorption in vivo, further supporting the assumption of the complete absorption of asciminib in humans in the fasted state.

[4] = Biopharmaceutics classification; type: physicochemical
[5] = Fraction unbound in microsomal incubation (fumic); type: in vitro ADME; details: for fraction unbound: human, microsomes (microsomal incubation)
CYP3A4/5 = test: Time-dependent inhibition of CYP3A4/5; type: in vitro ADME; details: up to 50 μM; in-house data
[6] = Relative contributions of clearance pathways (fm/fe/ft); parameters: species or system human
From the text: However, as discussed below, the in vivo contribution of UGTs was later adjusted downward to account for BCRP-mediated biliary excretion.
The contributions of CYP enzymes and renal elimination remained unchanged. […] A summary of the Simcyp output for elimination pathways, with and without BCRP, is provided in Supplementary Table S1.

[7] = Clinical DDI studies, asciminib as victim (observed); type: in vivo, human; details: asciminib 200 mg single dose + phenytoin 100 mg TID
[8] = Compartmental concentrations for static DDI risk assessment; parameters: species or system human
[9] = cited from earlier work; remark: listed apart in the source
CYP3A4 [10] = tested on: CYP3A4
[11] = in vitro, mean (SD); cited from earlier work
CYP2J2 [12] = details: Km*fumic; read-out: Km,u (CYP2J2), mean (SD); cited from earlier work
[13] = HLMs; cited from earlier work
[14] = 40 mg dose; cited from earlier work
[15] = with strong P-gp inhibitor quinidine; cited from earlier work
[16] = cited from earlier work; remark: listed apart in the source
[17] = cited from earlier work; remark: listed apart in the source
CYP3A4 [18] = test: Enzyme kinetics, recombinant CYP3A4; details: back-calculated, aim for fm = 0.351
CYP2J2 [19] = test: Enzyme kinetics, recombinant CYP2J2; details: back-calculated, aim for fm = 0.0076
MDCK-LE cell line = test: Apparent passive permeability in MDCK-LE cells; details: from MDCK-LE permeability
[20] = Preclinical volume of distribution across animal species; details: in vivo
[21] = cited from earlier work; remark: listed apart in the source
[22] = Table S1, sum of hepatic and renal UGT contributions
[23] = assuming no active biliary secretion

SMILES: O=C(Nc1ccc(OC(F)(F)Cl)cc1)c1cnc(N2CC[C@@H](O[C@@H]3O[C@H](C(=O)O)[C@@H](O)[C@H](O)[C@H]3O)C2)c(-c2ccn[nH]2)c1 [M30.5]
stability in human feces [1]: almost completely hydrolyzed back to asciminib | share of the total AUC ([2]; circulating metabolite): 4.93% | share of the administered dose ([2]; urinary metabolite): 5.4–8.4%

Papp A→B (in vitro; dog): 36 ×10⁻⁶ cm/s
SMILES: CC(C)NCC(O)COc1cccc2ccccc12 (centres unmarked) [propranolol, reference compound]

pIC50 (UGT1A4): 4.82
SMILES: Cc1ccc(NC(=O)c2ccc(CN3CCN(C)CC3)cc2)cc1Nc1nccc(-c2cccnc2)n1 [imatinib]

SMILES: O=C(Nc1ccc(OC(F)(F)Cl)cc1)c1cnc(N2CC[C@@H](O)C2)c(-c2ccn[nH]2)c1 [asciminib]
duration of sustained supersaturation [3]: at least 1 h | precipitation in vitro [3]: < 20% | biopharmaceutics classification system (BCS) class [4]: class II | fumic ([5]; 0.810 mg of protein/mL (CYP3A4 incubation)): 0.160 | fumic ([5]; 1.40 mg of protein/mL (CYP2J2 incubation)): 0.0925 | fumic ([5]; 1.5 mg of protein/mL (UGT incubation)): 0.0811 | fumic ([5]; 1.58 mg of protein/mL (CYP2C8 incubation)): 0.0829 | fumic ([5]; 1.86 mg of protein/mL (CYP2D6 incubation)): 0.0680 | fraction unbound ([5]; 0.025 mg/mL of protein): 0.871 | fraction unbound ([5]; 0.05 mg/mL of protein): 0.75 | fraction unbound ([5]; 0.5 mg/mL of protein): 0.208 | time-dependent inhibition (TDI) of CYP3A4/5 (CYP3A4/5): no apparent TDI; also recorded: no in vitro apparent time-dependent inhibition | CYP2C8: aim for fm/fe/ft, Simcyp output (without BCRP) ([6]; Table S1): 0.007 | CYP2C8: aim for fm/fe/ft, final fm (including hepatic BCRP) ([6]; Table S1): 0.005 | CYP2C8: fm/fe based on hADME ([6]; Table S1): 0.005 | CYP2D6: aim for fm/fe/ft, Simcyp output (without BCRP) ([6]; Table S1): 0.003 | CYP2D6: aim for fm/fe/ft, final fm (including hepatic BCRP) ([6]; Table S1): 0.002 | CYP2D6: fm/fe based on hADME ([6]; Table S1): 0.002 | CYP2J2: aim for fm/fe/ft, Simcyp output (without BCRP) ([6]; Table S1): 0.011 | CYP2J2: aim for fm/fe/ft, final fm (including hepatic BCRP) ([6]; Table S1): 0.0076 | CYP2J2: fm/fe based on hADME ([6]; Table S1): 0.0076 | CYP3A4: aim for fm/fe/ft, Simcyp output (without BCRP) ([6]; Table S1): 0.509 | CYP3A4: aim for fm/fe/ft, final fm (including hepatic BCRP) ([6]; Table S1): 0.351 | CYP3A4: fm/fe based on hADME ([6]; Table S1): 0.351 | Hepatic BCRP: aim for fm/fe/ft, final fm (including hepatic BCRP) ([6]; Table S1): 0.311 | Hydrolysis: aim for fm/fe/ft, Simcyp output (without BCRP) ([6]; Table S1): 0.010 | Hydrolysis: aim for fm/fe/ft, final fm (including hepatic BCRP) ([6]; Table S1): 0.007 | Hydrolysis: fm/fe based on hADME ([6]; Table S1): 0.007 | Renal excretion: aim for fm/fe/ft, Simcyp output (without BCRP) ([6]; Table S1): 0.035 | Renal excretion: aim for fm/fe/ft, final fm (including hepatic BCRP) ([6]; Table S1): 0.044 | Renal excretion: fm/fe based on hADME ([6]; Table S1): 0.044 | UGT1A3: aim for fm/fe/ft, Simcyp output (without BCRP) ([6]; Table S1): 0.048 | UGT1A3: aim for fm/fe/ft, final fm (including hepatic BCRP) ([6]; Table S1): 0.033 | UGT1A3: fm/fe based on hADME ([6]; Table S1): 0.0705 | UGT1A4: aim for fm/fe/ft, Simcyp output (without BCRP) ([6]; Table S1): 0.048 | UGT1A4: aim for fm/fe/ft, final fm (including hepatic BCRP) ([6]; Table S1): 0.033 | UGT2B7: aim for fm/fe/ft, Simcyp output (without BCRP) ([6]; Table S1): 0.190 | UGT2B7: aim for fm/fe/ft, final fm (including hepatic BCRP) ([6]; Table S1): 0.131 | UGT2B17: aim for fm/fe/ft, Simcyp output (without BCRP) ([6]; Table S1): 0.110 | UGT2B17: aim for fm/fe/ft, final fm (including hepatic BCRP) ([6]; Table S1): 0.076 | UGT2B17: fm/fe based on hADME ([6]; Table S1): 0.163 | UGT1A4: fm/fe based on hADME [6, 22]: 0.0705 | UGT2B7: fm/fe based on hADME [6, 22]: 0.279 | revised total UGT contribution to total clearance ([6]; after subtracting BCRP contribution): approximately 27.3% | CYP-mediated contribution to total clearance [6, 23]: 36.6% | UGT-mediated contribution to total clearance [6, 23]: 58.3% | reduction of AUCinf, observed [7]: 34% | reduction of Cmax, observed [7]: 22% | Cgut (maximal gut concentration) ([8]; 40 mg BID): 356 µM | Cgut,ent (maximal enterocyte concentration) ([8]; 40 mg BID): 10.5 µM | Ch,in,tot (total maximal hepatic inlet plasma concentration) ([8]; 40 mg BID): 4.47 µM | Ch,in,u (unbound maximal hepatic inlet plasma concentration at the steady state) ([8]; 40 mg BID): 0.121 µM | Cgut (maximal gut concentration) ([8]; 80 mg QD): 711 µM | Cgut,ent (maximal enterocyte concentration) ([8]; 80 mg QD): 20.9 µM | Ch,in,tot (total maximal hepatic inlet plasma concentration) ([8]; 80 mg QD): 9.38 µM | Ch,in,u (unbound maximal hepatic inlet plasma concentration at the steady state) ([8]; 80 mg QD): 0.253 µM | Cgut (maximal gut concentration) ([8]; 200 mg BID): 1778 µM | Cgut,ent (maximal enterocyte concentration) ([8]; 200 mg BID): 52.4 µM | Ch,in,tot (total maximal hepatic inlet plasma concentration) ([8]; 200 mg BID): 26.1 µM | Ch,in,u (unbound maximal hepatic inlet plasma concentration at the steady state) ([8]; 200 mg BID): 0.704 µM | estimated gastrointestinal luminal concentration ([8]; lowest clinical dose 20 mg): ~ 178 μM | Log P: Octanol–water partition/logD pH 6.8 [9]: 3.9 | Emax (CYP3A4), non-calibrated (CYP3A4 [10]): Non-calibrated Emax = 4.4 In-house data fold | Indmax (=Emax + 1) (CYP3A4), in vitro measured (CYP3A4 [10]): 5.4 fold | fup (fraction unbound in plasma) [11]: 0.027 (0.011) | Km (CYP2J2 [12]): 0.694 µM | share of metabolism by glucuronidation [13]: ~ 65% | share of metabolism by oxidative metabolism [13]: ~ 35% | unchanged asciminib in urine [2]: 4.4 % of the administered radioactive dose | parent asciminib in feces due to back-conversion of M30.5 ([2]; estimated from late-time-point feces profile): 24% | CLr (renal clearance) ([2]; healthy): 1.8 mL/min/1.73 m^2 | unchanged asciminib in cumulative feces ([2]; pooled 0–96 h or 0–168 h, average): 56.7 % of the dose | AUC in cancer patients [14]: 5800 to 6100 ng·h/mL | decrease of asciminib AUC [15]: 13% | decrease of asciminib Cmax [15]: 11% | exposure reduction, high-fat fed [16]: 70% | exposure reduction, low-fat fed [16]: 33% | flux in presence of elevated bile acid concentrations (FeSSIF) [17]: reduced asciminib flux | recovery (in vitro; dog): 88% | Papp (in vitro; human): 373 ×10⁻⁶ cm/s | Vmax (CYP3A4) (CYP3A4 [18]): 3.8 pmol/min/pmol of CYP | Vmax (CYP2J2) (CYP2J2 [19]): 0.355 pmol/min/pmol CYP | predicted fraction absorbed (fa) (MDCK-LE cell line): 93% and ~ 93% | Vd [20]: 0.5 to 2.2 L/kg

SMILES: COc1ccc2[nH]c([S+]([O-])Cc3ncc(C)c(OC)c3C)nc2c1 (centres unmarked) [Omeprazole, omeprazole]
fm by CYP2C19 ([21]; CYP2C19 normal metabolizers): ≈ 0.9 | fm by CYP3A ([21]; probe substrate property): ≈ 0.1

SMILES: CCOc1cc(CC(=O)N[C@@H](CC(C)C)c2ccccc2N2CCCCC2)ccc1C(=O)O [Repaglinide, repaglinide]
fm by CYP2C8 ([21]; probe substrate property): ≈ 0.7 | fm by CYP3A ([21]; probe substrate property): ≈ 0.3

Papp A→B (in vitro; dog): 0.24 ×10⁻⁶ cm/s
SMILES: C[C@H]1[C@H](NC(=O)/C(=N\OC(C)(C)C(=O)O)c2csc(N)n2)C(=O)N1S(=O)(=O)O [aztreonam, reference compound]

SMILES: Cn1c(=O)c2c(ncn2C)n(C)c1=O [Caffeine, caffeine]
fm by CYP1A2 ([21]; probe substrate property): ≈ 0.9

SMILES: Cc1nnc(C(=O)NC(C)(C)c2nc(C(=O)NCc3ccc(F)cc3)c(O)c(=O)n2C)o1 [Raltegravir, raltegravir]
share eliminated by renal clearance ([21]; assumption of the raltegravir model): 9%

SMILES: CN(CCOc1ccc(CC2SC(=O)NC2=O)cc1)c1ccccn1 (centres unmarked) [rosiglitazone]
fm by CYP2C8 ([21]; probe substrate property): ≈ 0.6 | fm by CYP2C9 ([21]; probe substrate property): ≈ 0.3
